How the values were obtained:
[1] = tested on: human fibrosarcoma cell strain HT-P11; assay: Action of MSE for promoting procollagenase production (FITC-collagen collagenase activity of culture supernatant); assay type: cell-based
Experimental: A test was carried out using anchorage independent cell strain which is derived from a human fibrosarcoma cell strain HT 1080 (ATCC CCL121) and growable in a serum-free, protein-free medium (referred to as "human fibrosarcoma cell strain HT-P11".). Namely, the above-described human fibrosarcoma cell strain HT 1080 (ATCC CCL1211) was cultured in the presence of serum in a flask having a base area of 25 cm^2 and the medium was replaced by the HF-AV medium. Replacing a fifth to half part of the cultured suspension with a fresh HF-AV medium every 3-4 days, the culture was continued in a serum-free, protein-free medium. The thus grown cells were used. The cells were pre-cultured as below to prepare a cell suspension which was then tested.
The human fibrosarcoma cell strain HT-P11 was suspended with a density of 1×10^5 cells/ml in the HF-AV medium. Flasks (each having a base area of 75 cm^2) were charged, respectively, with 20 ml of the resulting suspension, and stationarily cultured at 37° C. for 3 days in a 95% air/5% carbon dioxide gas atmosphere. […]
Using a type-I collagen labeled with fluorescein isothiocyanate (hereinafter abbreviated as "FITC") (a 1 mg/ml conc. FITC/collagen acetic acid solution, manufactured by Cosmo Bio Co.) as a substrate solution, the activity (unit/ml) of the above collagenase solution was determined in accordance with the following procedure.

[2] = tested on: male rabbits of Japanese native strain; assay: Skin irritative test (Draize method); assay type: in vivo
Experimental: Using male rabbits of Japanese native strain (a weight of about 3 kg), a skin irritative test was conducted in accordance with the Draize method [Appraisal of the Safety of Chemicals in Foods, Drugs and Cosmetics, p.46 (1959) edited and published by the Editorial Committee, Association of Food & Drug Official of U.S.A.].
An abraded region (injured skin) was produced on the hair-trimmed back of the rabbits. An adhesive plaster for a patch test (RIBBON-AID™ of 1.2 cm×1.6 cm, manufactured by Liba-Tape & Co., Ltd.) was impregnated with 0.1 ml of a 1 wt. % MSE aqueous solution that had been prepared by dissolving MSE in refined water and attached onto the injured skin and a normal skin, respectively. After 24 hours, the plaster was detached to observe erythematic and edematous conditions of the skins. After 48 hours from detaching of the plaster, the same observation was made.
Based on the above scores and the following equation, primary irritant scores were calculated.
Primary irritant score=(A24 +A48)/2+(B24
Then, irritation degrees of the test compounds were appraised based upon the primary irritative scores and the criteria shown in Table 6.

[3] = tested on: Rats of hepatic fibrosis induced by CCl4; assay: Effect of MSE in medical treatment for hepatic fibrosis (Hyp in liver and blood, blood plasma biochemistry); assay type: in vivo, male rats of Wistar origin; settings: mean ± standard error (n = 5)
Experimental: (§1) A 2 ml/kg dose of an equivalent mixture of carbon tetra-chloride (CCl4) and olive oil was administered hypodermically to the back of male rats of Wistar origin (5 weeks old; a weight of 122-134 g; and 5 rats/group) twice a week (on Monday and Thursday) for 10 weeks to produce rats of hepatic fibrosis. A 3 ml/kg dose of a 66.6 mg/ml conc. MSE aqueous solution was administered perorally once a day for continual 7 weeks (except Sundays) from the 4th week after the commencement of the CCl4 administration.
Then, the whole blood was gathered from the abdominal aorta and collected in a test tube treated with heparin. This was centrifuged to obtain blood plasma. The blood plasma was stored at -80° C. until the under-mentioned biochemical examinations.
(§2) Further, after gathering the whole-blood, the liver was extracted, weighed and divided into halves under an ice-chilled condition. Then, one of the halves was frozen at -80° C. for quantification of hydroxyproline (hereinafter abbreviated as "Hyp") in the liver and the other half was fixed with a 10% formaline solution for a histological examination.
(§3) On the other hand, there were provided, as an untreated group, a group of the rats of hepatic fibrosis administered with 3 ml/kg of refined water in lieu of the MSE aqueous solution according to the same schedule as the above and, as a group of normal rats, a group bred for 10 weeks without administering CCl4 and the MSE aqueous solution. Blood-gathering and liver-extraction were conducted on these groups in the same manner as the above.
(§4) Then, using the above each liver and blood plasma, the Hyp in the liver and blood were quantified. Additionally, the Hyp is an index of the quantity of the collagen [Methods of Biochemical Analysis, Vol. 15, p. 25 (1967)]. Further, biochemical examinations of the blood plasma [refer to the under-described items (b)-(h)] and histological examinations of the liver [refer to the under-described item (i)], as indices of liver injury, were conducted.
(a) Quantities of the Hyp in liver and blood.
(a-1) Quantity of the Hyp in a liver: about 100 mg of a liver were weighed precisely and added with 250 μl of physiological salt solution. Then, the liver was disintegrated by agitating vigorously (at 28,000 rpm for 30 seconds) with a homogenizer (PHYSCOTRON™, manufactured by Niti-On Medical and Physical Instruments Mfg. Co.).
The obtained suspension was centrifuged (at 5,000 rpm for 10 min.) and separated into a supernatant sample and a precipitation sample. By adding a 6N hydrochloric acid, each sample was increased to 2 ml and hydrolyzed at 110° C. for 24 hours. The hydrolyzate solution was centrifugally condensed to remove hydrochloric acid therefrom and the condensate was dissolved in a 0.01N hydrochloric acid.
The obtained solution was quantified according to a determination method of amino acids by a high-performance liquid chromatography with a post-column derivatization [Proceedings of the National Academy of Sciences of the U.S.A., Vol. 72, No. 2, p. 619 (1975)] to find quantities of the Hyp in the supernatant sample and precipitation sample, respectively. Then, a quantity of the Hyp per unit weight of the liver (μmol/g of liver) was calculated from the total quantity of the Hyps in the supernatant sample and precipitation sample and the weight of the liver.
(a-2) Quantity of the Hyp in blood: 100 μl of blood plasma was admixed with 100 μl of a 5 w/v % sulfo-salicylic acid aqueous solution under an ice-chilled condition and centrifugally separated (10,000 rpm; for 3 min.) to obtain a supernatant liquor. The Hyp in the supernatant liquor was quantified according to the above-mentioned determination method of amino acids (μmol/1).
(b) Quantity of glutamic-pyruvic transaminase (hereinafter abbreviated as "GPT"):
(b-3) Measurement of test sample.
(c) Quantity of glutamic-oxaloacetic transaminase (hereinafter abbreviated as "GOT"): […]

male mice of ICR strain = assay: Acute toxicity; assay type: in vivo; settings: single peroral dose 5 g/kg of body weight, 5 male mice, observed 7 days
Experimental: An acute toxicity was examined as follows:
To 5 male mice of ICR strain (5 weeks old; a weight of 24~28 g), a 25 g/ml conc. MSE aqueous solution that had been prepared by dissolving MSE in refined water was perorally administered once in a dose of […] of the body weight (5 g/kg of the body weight, as MSE).

[4] = tested on: Rats of hepatic fibrosis induced by CCl4; assay: Histological examination of liver; assay type: in vivo, male rats of Wistar origin; settings: as compared with the untreated group; hematoxylin-eosin
Experimental: as §1, §2, §3, §4
(i) Histological examination of liver: a liver was sliced according to a usual method and, after staining with hematoxylin-eosin, it was microscopically observed.

CN[C@@H](CO)C(=O)O [MSE, N-methyl-L-serine]
Production of procollagenase ([1]; mean ± standard error (N = 3), control 3.7 ± 0.2, 600 μM MSE solution, 0.4 ml added to 2 ml culture, 13 days, P < 0.01): 7.9 ± 0.7 unit/ml of culture solution
Production promotion rate ([1]; versus no additives (control)): 114%
primary irritative score ([2]; 0.1 ml of 1 wt. % MSE aqueous solution, injured and normal skin, after 24 and 48 hours): zero
appraisal of irritation ([2]; based on primary irritative score, 1 wt. % MSE aqueous solution): light irritation
f: Quantity of alkaline phosphatase ([3]; Bessey-Lowry's method, untreated 1270 ± 90, p < 0.01): 956 ± 114 unit/l
e: Quantity of gross bilirubin ([3]; Malloy-Evelyn's method, untreated 0.36 ± 0.02, p < 0.1): 0.26 ± 0.05 m9/dl
g: Thymol turbidimetric test value (TTT) ([3]; blood plasma, untreated 0.26 ± 0.06): 0.18 ± 0.13 U of Kunkel
h: Zinc sulphate turbidimetric test value (ZTT) ([3]; blood plasma, untreated 0.78 ± 0.11, p < 0.01): 0.26 ± 0.07 U of Kunkel
d: Quantity of γ-glutamyl transpeptidase (γ-GTP) ([3]; blood plasma, untreated 17.6 ± 0.7, p < 0.1): 14.4 ± 1.7 U/liter
a-2: Quantity of the Hyp in blood ([3]; blood plasma, untreated 30.6 ± 1.1, p < 0.1): 39.1 ± 3.6 μmol/1
b: Quantity of glutamic-pyruvic transaminase (GPT) ([3]; blood plasma, untreated 948 ± 92, p < 0.01): 537 ± 182 Reitman-Frankel unit
c: Quantity of glutamic-oxaloacetic transaminase (GOT) ([3]; blood plasma, untreated 2170 ± 184, p < 0.01): 875 ± 324 Reitman-Frankel unit
a-1: Quantity of the Hyp in liver ([3]; peroral 3 ml/kg of 66.6 mg/ml once a day, 7 weeks, untreated 10.0 ± 1.5, p < 0.1): 6.79 ± 0.82 μmol/g of liver
deaths by administration (male mice of ICR strain): no deaths
cholangioepithelial cytogenesis [4]: mitigated
cholangiolar hyperplasia [4]: mitigated
diffuse hepatocyte vacuolization [4]: mitigated
